# Results from patent US20220193209A1, “COMPOSITIONS AND METHODS FOR REACTIVATING LATENT IMMUNODEFICIENCY VIRUS AND/OR TREATING IMMUNODEFICIENCY VIRUS INFECTION” (The J. David Gladstone institutes, a testamentary trust …, priority 2019, published 2022).
# Tests used:
# Smyd2 = Smyd2 (Homo sapiens, UniProt Q9NRG4); conditions: SMYD2, substrate competitive; cited from earlier work
# [1] = test system: latent HIV-1 provirus in J-Lat cells; experiment: HIV-GFP reactivation in J-Lat cell lines (RT-qPCR, FACS); assay type: cell-based; conditions: for HIV-1 reactivation (HIV-GFP): ER stress inducers, 24, 48 and 72 h; for effect on TNFα-mediated HIV reactivation: with 10 ng/mL TNFα (24 h); for effect on AS1842856-induced HIV reactivation: with 1000 nM AS1842856 (72 h)
# Protocol: Total RNA from samples was extracted using the Direct-zol RNA kit (R2060; Zymogen). cDNA was generated using 500 ng for CD4^+ T cells or 1000 ng of total RNA for J-Lats with Superscript III Reverse transcription (18080-044; ThermoFisher) and oligo(dT) (18418-012; ThermoFisher). Quantitative RT-PCR was carried out using Maxima SYBR Green qPCR Master Mix (Thermo Scientific) on SDS 2.4 software (Applied Biosystems) in a total volume of 12 μL. The SYBR green qPCR reactions contained 5 μl of 2× Maxima SYBR green/Rox qPCR Master Mix (K0221; ThermoFisher), 5 μl of diluted cDNA, and 1 nmol of both forward and reverse primers. The reactions were run using the following conditions: 50° C. for 2 min and 95° C. for 10 min, followed by 40 cycles of 95° C. for 5 s and 62° C. for 30 s. See Table 1 below for a qRT-PCR primer list. […] Dissociation curve analysis was performed after the end of the PCR to confirm the presence of a single and specific product. All qPCRs were independently repeated at least three times, averaged and compared using standard deviation (±SD).
# The J-Lat clonal cell lines are Jurkat cells that contain a stably integrated, latent HIV-1 (HXB) Δenv provirus with a GFP reporter gene in place of the nef gene (Jordan, A. et al. EMBO J. 22, 1868-1877 (2003)). In this system, reactivation from established latency can be monitored through GFP expression.
# HIV-GFP mRNA reactivation was assessed by RT-qPCR and normalized to RPL13A mRNA. Data represent average SD of three independent experiments. p-value relative to the control at each time point. FIG. 3, Panel B, depicts cell viability assessed by flow cytometry at 72 h of the same experiment as in A. Cell viability was measured by gating on both the live population at the forward scatter (FSC) and side scatter (SSC) plot and then the viable cells after staining with the viability dye. […] HIV-GFP reactivation (bars) and cell viability (dots) were analyzed by FACS. HIV-GFP reactivation is reported as a percentage of GFP-expressing cells (% GFP+ cells). Data represent average f SD of at least three independent experiments. FIG. 3, Panel D, depicts the same experiments as in FIG. 3, Panel C, but performed in different J-Lat cell lines 5A8, 6.3, 11.1 and 15.4. Data represent average f SD of at least three independent experiments. 10 ng/mL TNFα was used as control. […] Calculation of synergy for drug combinations using the Bliss independence model applied to the HIV-GFP reactivation measured as a percentage of GFP-expressing cells (% GFP+ cells).
# Chromatin was prepared from J-Lat A2 and 5A8 cells, in which the LTR was stimulated by 1000 nM AS1842856 treatment, TNFα or which were left untreated/DMSO. […] HIV-GFP reactivation was analyzed by FACS and relativized to the control condition. […] Data represent average SD of 3-6 independent experiments. […] HIV-GFP reactivation was analyzed by FACS. […] HIV-GFP reactivation and cell viability were analyzed by FACS. Data were mean±SD of three independent experiments.
# J-Lat cells = experiment: Cell viability of J-Lat cells by flow cytometry; assay type: cell-based; conditions: J-Lat
# Protocol: FIG. 3, Panel A, depicts results of treatment of a J-Lat cell line 5A8 with increasing concentrations (1-10000 nM) of AS1842856 for 24, 48 and 72 h. HIV-GFP mRNA reactivation was assessed by RT-qPCR and normalized to RPL13A mRNA. Data represent average SD of three independent experiments. p-value relative to the control at each time point. FIG. 3, Panel B, depicts cell viability assessed by flow cytometry at 72 h of the same experiment as in A. Cell viability was measured by gating on both the live population at the forward scatter (FSC) and side scatter (SSC) plot and then the viable cells after staining with the viability dye. FIG. 3, Panel C, depicts results of treatment of J-Lat cell lines A2 and A72 with increasing concentrations of AS1842856 for 24, 48 and 72 h. HIV-GFP reactivation (bars) and cell viability (dots) were analyzed by FACS. HIV-GFP reactivation is reported as a percentage of GFP-expressing cells (% GFP+ cells). Data represent average f SD of at least three independent experiments. FIG. 3, Panel D, depicts the same experiments as in FIG. 3, Panel C, but performed in different J-Lat cell lines 5A8, 6.3, 11.1 and 15.4. Data represent average f SD of at least three independent experiments. 10 ng/mL TNFα was used as control. FIG. 3 Panel E depicts results of treatment of J-Lat cell lines 5A8, 6.3, 11.1 and 15.4 for 72 h with increasing concentrations of both AS1842856 (Y-axis) and TNFα (X-axis) alone or in combination and analyzed by FACS. Calculation of synergy for drug combinations using the Bliss independence model applied to the HIV-GFP reactivation measured as a percentage of GFP-expressing cells (% GFP+ cells).
# FIG. 10, Panels A-F depict results of a J-Lat cell line 5A8 treated with different concentrations of inhibitors. FIG. 10, Panel A, depicts results for a J-Lat cell line A58 that was treated with increasing concentrations of A-92 (GCN2 inhibitor) in combination with 1000 nM AS1842856 (72 h) or 10 ng/mL TNFα (24 h). HIV-GFP reactivation was analyzed by FACS and relativized to the control condition. Histogram plots of percent live cells for each drug treatment are shown. FIG. 10, Panel B, depicts the same experiment as in FIG. 10, Panel A, but cells were treated with increasing concentrations of PKR inhibitor (PKRi). Histogram plots representing viability are also shown. Data are represented by mean±SD of three different […]. […] FIG. 10, Panel D, depicts a J-Lat cell line A58 that was treated with increasing concentrations of Ionomycin (0.01, 0.1, 0.5, 1 μM) for 24, 48 and 72 hr. HIV-GFP reactivation and cell viability were analyzed by FACS. FIG. 10, Panel E, depicts a J-Lat cell line 5A8 that was treated for 72 h with increasing concentrations of both Fenretinide (Y-axis) and Ionomycin (X-axis) alone or in combination and analyzed by FACS. HIV-GFP reactivation is reported as a percentage of GFP-expressing cells (% GFP+ cells). FIG. 10, Panel F, depicts a J-Lat cell line 5A8 that was also treated for 72 h with increasing concentrations of both Thapsigargin (Y-axis) and Cyclosporin A (X-axis) alone or in combination and analyzed by FACS. HIV-GFP reactivation is again reported as a percentage of GFP-expressing cells (% GFP+ cells).
# HIV LTR = experiment: Chromatin immunoprecipitation (ChIP) at the HIV LTR in J-Lat cells; assay type: cell-based, HIV-1
# Protocol: J-Lat A2 and A72 cells were treated with TNFα (10 ng/ml) for 18 h. Cells were fixed with 1% formaldehyde (v/v) in fixation buffer (1 mM EDTA, 0.5 mM EGTA, 50 mM Hepes, pH 8.0, 100 mM NaCl), and fixation was stopped after 10 min by addition of glycine to 125 mM. The cell membrane was lysed for 15 min on ice (5 mM Pipes, pH 8.0, 85 mM KCl, 0.5% NP40, protease inhibitors). After washing with nuclear swell buffer (25 mM HEPES, pH 7.5, 4 mM KCl, 1 Mm DTT, 0.5% NP-40, 0.5 mM PMSF) and micrococcal nuclease (MNase) digestion buffer (20 mM Tris pH 7.5, 2.5 mM CaCl2), 5 mM NaCl, 1 mM DTT, 0.5% NP-40), the pellet was resuspended in MNase buffer (15 mM Tris-HCl, pH 7.5, 5 mM MgCl2, 1 mM CaCl2), and 25 mM NaCl). Subsequently, samples were incubated with MNase (New England Biolabs) for 10 min at RT. The reaction was quenched with 0.5 M EDTA and incubated on ice for 5 min. Cells were lysed (1% SDS, 10 mM EDTA, 50 mM Tris-HCl, pH 8.1, protease inhibitors), and chromatin DNA was sheared to 200-1000-bp average size through sonication (Ultrasonic Processor CP-130, Cole Parmer). Cellular debris was pelleted, and the supernatant was recovered. Protein A/G Sepharose beads were blocked with single-stranded salmon sperm DNA and BSA, washed and resuspended in immunoprecipitation buffer. Blocked protein A/G Sepharose beads were added to the digested chromatin fractions and rotated at 4° C. for 2 h to preclear chromatin. Lysates were incubated overnight at 4° C. with 5 μg of FOXO1, RelA, histone H4, H4K20me1, H4K20me2, H4K20me3 antibodies, or IgG control. After incubation with protein A/G agarose beads for 2 h and washing three times with low salt buffer (0.1% SDS, 1% Triton X-100, 2 mM EDTA, 20 mM Tris-HCl, pH 8.1, 150 mM NaCl), one time with high salt buffer (0.1% SDS, 1% Triton X-100, 2 mM EDTA, 20 mM Tris-HCl, pH 8.1, 500 mM NaCl) and twice with TE-buffer (1 mM EDTA, 10 mM Tris-HCl, pH 8.1), chromatin was eluted and recovered with Agencourt AMPure XP beads (Beckman Coulter). Bound chromatin and input DNA were treated with RNase H (New England Biolabs) and Proteinase K (Sigma-Aldrich) at 37° C. for 30 min. Immunoprecipitated chromatin was quantified by real-time PCR using the Maxima SYBR Green qPCR Master Mix (Thermo Scientific) and the ABI 7700 Sequence Detection System (Applied Biosystems). The SDS 2.4 software (Applied Biosystems) was used for analysis. The specificity of each PCR reaction was confirmed by melting curve analysis using the Dissociation Curve software (Applied Biosystems). All chromatin immunoprecipitations and qPCRs were repeated at least three times, and representative results were shown.
# Because ATF4 can be recruited to the HIV LTR (Jiang, G. et al. Downloaded from. MBio 8, 1518-1534 (2018)) and the related human T-cell leukemia virus type 1 (HTLV-1) Reddy, T. et al. Oncogene 14, 2785-2792 (1997)), chromatin immunoprecipitation (ChIP) experiments were performed to test whether ATF4 binds the HIV LTR in response to FOXO1 inhibition. While low levels of ATF4 bound HIV LTR chromatin in untreated J-Lat cells, its recruitment was 3-fold enriched after AS1842856 treatment (FIG. 9, Panel A). […] The nuclear factor of activated T cells (NFAT) can occupy the NF-κB binding sites in the HIV LTR, and is activated through calcium mobilization after T cell activation rather than protein kinase C activation as for NF-κB. […]
# Sequence of Smyd2 (Q9NRG4 whole entry, species assumed): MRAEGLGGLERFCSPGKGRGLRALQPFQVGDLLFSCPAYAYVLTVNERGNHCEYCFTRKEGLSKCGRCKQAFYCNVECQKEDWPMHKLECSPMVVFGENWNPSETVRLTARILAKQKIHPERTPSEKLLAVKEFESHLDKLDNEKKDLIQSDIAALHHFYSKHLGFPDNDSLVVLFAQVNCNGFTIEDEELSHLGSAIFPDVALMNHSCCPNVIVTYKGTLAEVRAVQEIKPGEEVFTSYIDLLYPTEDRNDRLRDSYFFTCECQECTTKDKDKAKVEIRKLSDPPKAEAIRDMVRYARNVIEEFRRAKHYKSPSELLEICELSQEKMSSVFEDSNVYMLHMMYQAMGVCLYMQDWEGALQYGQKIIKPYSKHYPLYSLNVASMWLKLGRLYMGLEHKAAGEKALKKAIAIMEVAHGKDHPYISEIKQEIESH
molecule,measurement,setting,value
N#Cc1cc(C(=O)NCCCN2CCCC2)cc(-c2ccccc2N2CCN(CCc3c[nH]c4ccccc34)CC2)c1 [AZ391],IC50,Smyd2,62 nM
C[C@H]1CCC/C=C/[C@@H]2C[C@H](O)C[C@H]2[C@H](O)/C=C/C(=O)O1 [Brefeldin A],HIV-1 reactivation (HIV-GFP),[1]; J-Lat,HIV-1 reactivation
same,cellular toxicity,J-Lat cells; ER stress inducers,dose-dependent levels of cellular toxicity
Cc1cccc(CC(=O)N2CCc3c2ccc(-c2cn(C)c4ncnc(N)c24)c3F)n1 [PERK inhibitor],effect on TNFα-mediated HIV reactivation,[1]; J-Lat,not affected
same,suppression of AS1842856-mediated HIV reactivation,"[1]; J-Lat, with 1000 nM AS1842856",~50%
same,effect on AS1842856-induced HIV reactivation,[1]; J-Lat,reduced
O=C1Nc2ccc3ncsc3c2/C1=C/c1cnc[nH]1 [PKR inhibitor],effect on TNFα-mediated HIV reactivation,[1]; J-Lat,diminished
same,effect on AS1842856-induced HIV reactivation,[1]; J-Lat,not
CC1=C(/C=C/C(C)=C/C=C/C(C)=C/C(=O)Nc2ccc(O)cc2)C(C)(C)CCC1 [fenretinide],HIV-1 reactivation (HIV-GFP),[1]; J-Lat,best reactivation
same,cellular toxicity,J-Lat cells; ER stress inducers,dose-dependent levels of cellular toxicity
same,cellular toxicity,"J-Lat cells; fenretinide 0.5 μM, alone or with ionomycin",nontoxic
C/C=C(/C)C(=O)O[C@H]1C(C)=C2[C@H]([C@@H]1OC(=O)CCCCCCC)[C@@](C)(OC(C)=O)C[C@H](OC(=O)CCC)[C@@]1(O)[C@H]2OC(=O)[C@@]1(C)O [thapsigargin],HIV-1 reactivation (HIV-GFP),[1]; J-Lat,HIV-1 reactivation
same,cellular toxicity,J-Lat cells; ER stress inducers,dose-dependent levels of cellular toxicity
TNFα,time of maximal activation,"[1]; J-Lat 5A8, GFP mRNA",24 h
same,GFP expression,"[1]; four J-Lat clonal cell lines, as early as 24 hours",induced GFP expression
same,RelA recruitment to the HIV LTR,HIV LTR,significantly enriched
